# Reference: patent US8148508 (dated 2012)
# What was measured:
# clostripain [1] = experiment: 10 mM Tris, 1 mM EDTA, 5 mM CaCl2 (pH 8.0), varying clostripain ratios; details: 21° C.; also 40° C., up to 10 hr
# clostripain [2] = experiment: cell free extract containing T7tag-GSDR-[GLP-2(1-34)]6 precursor, pH 6.4 NaH2PO4, 1 mM CaCl2, 1 mM DTT; details: 25° C., up to approximately 3 hours
# clostripain [3] = experiment: clostripain digestion under different pH conditions
# clostripain [4] = experiment: 50 mM HEPES buffer (pH 6.7), 1 mM CaCl2, 1 mM cysteine, 4.8 M urea, 10, 20 and 35% ethanol; details: 25° C., up to 30 minutes
# recombinant clostripain = experiment: cell free extract with 0.2 units of recombinant clostripain per mg precursor polypeptide; details: up to up to 3 hours
sequence,measurement,setting,value
HADGSFSDEMNTILDNLAARDFINWLIQTKITDR,fragment found,clostripain [1],truncated GLP-2(21-34)
same,fragment found,clostripain [2],GLP-2 fragment (21-34)
HGDGSFSDEMNTILDNLAARDFINWLIQTKITD,fragment found,clostripain [3],GLP-2(21-33)
same,fragment found,clostripain [4],GLP-2(21-33)
same,fragment found,recombinant clostripain,GLP-2 fragment (21-33)
